The source made the active and inactive calls. The rule behind the calls is not given here.
Legend:
[1] = Cytotoxicity against human HeLa cells after 24 hrs by XTT assay; type: cell-based
[2] = Inhibition of aggregation of amyloid beta (17 to 40) assessed as fibril formation at 100 uM measured up to 13 hrs by high throughput thioflavin-T binding assay
[3] = Inhibition of aggregation of amyloid beta (17 to 40) assessed as fibril formation at 100 uM measured up to 24 hrs by transmission electron microscopic analysis
[4] = Inhibition of aggregation of amyloid beta (17 to 40) assessed as fibril formation at 100 uM measured up to 10 hrs by turbidimetry assay
Saccharomyces cerevisiae [5] = test: Toxicity in yeast harboring erg6delta expressing human DHFR-fused amyloid beta (1 to 42) at 10 uM; type: organism-based; settings: in vivo
[6] = Elongation of aggregates of GFP-fused amyloid beta (1 to 42) expressed in Podospora anserina extract assessed as reduction of amyloid beta SDS-resistant oligomers after 1 hr by SDS-PAGE and Western blot analysis
[7] = Toxicity in Podospora anserina expressing GFP-fused amyloid beta (1 to 42) assessed as effect on lifespan and growth rate of fungi at 50 uM
[8] = Inhibition of aggregation of GFP-fused amyloid beta (1 to 42) expressed in Podospora anserina assessed as reduction of amyloid beta SDS-resistant oligomers at 50 uM after 24 hrs by SDS-PAGE and Western blot analysis
Saccharomyces cerevisiae [9] = test: Toxicity in yeast harboring erg6delta expressing human DHFR-fused amyloid beta (1 to 42) at 100 uM; type: organism-based; settings: in vivo
[10] = Lipophilicity, log P of the compound; type: physicochemical; settings: octanol/water
[11] = Inhibition of aggregation of GFP-fused amyloid beta (1 to 42) expressed in Podospora anserina assessed as reduction of amyloid beta SDS-resistant oligomers at 50 uM after 10 hrs to 5 days by SDS-PAGE and Western blot analysis
[12] = biological target: Amyloid-beta precursor protein (Homo sapiens) (UniProt P05067); test: Inhibition of aggregation of human DHFR-fused amyloid beta (1 to 42) expressed in yeast harboring erg6delta assessed as increase in yeast viability at 10 uM measured up to 20 hrs in presence of MTX
Amyloid-beta precursor protein (Homo sapiens), sequence (P05067 whole entry, the tested form may be a part): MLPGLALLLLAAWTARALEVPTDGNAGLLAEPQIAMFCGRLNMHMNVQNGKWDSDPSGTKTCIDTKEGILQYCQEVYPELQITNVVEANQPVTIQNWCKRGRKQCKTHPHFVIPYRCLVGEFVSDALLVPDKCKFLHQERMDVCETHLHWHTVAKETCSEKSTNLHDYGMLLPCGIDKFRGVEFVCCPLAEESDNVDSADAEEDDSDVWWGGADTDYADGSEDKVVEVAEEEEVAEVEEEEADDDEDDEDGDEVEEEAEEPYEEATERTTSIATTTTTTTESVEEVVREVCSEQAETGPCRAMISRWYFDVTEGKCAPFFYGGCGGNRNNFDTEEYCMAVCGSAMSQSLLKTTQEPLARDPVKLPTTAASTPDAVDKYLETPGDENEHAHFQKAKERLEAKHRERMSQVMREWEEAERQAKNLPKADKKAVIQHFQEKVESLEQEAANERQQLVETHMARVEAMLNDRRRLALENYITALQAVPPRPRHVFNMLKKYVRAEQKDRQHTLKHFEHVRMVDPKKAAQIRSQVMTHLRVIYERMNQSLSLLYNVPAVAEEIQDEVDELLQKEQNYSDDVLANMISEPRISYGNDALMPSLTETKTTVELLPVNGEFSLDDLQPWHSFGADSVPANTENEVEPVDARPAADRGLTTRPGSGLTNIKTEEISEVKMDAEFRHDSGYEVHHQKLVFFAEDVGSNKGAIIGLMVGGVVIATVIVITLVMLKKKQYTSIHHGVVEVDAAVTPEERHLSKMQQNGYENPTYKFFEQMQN

[13] = Toxicity in Podospora anserina expressing GFP-fused amyloid beta (1 to 42) assessed as effect on lifespan and growth rate of fungi at 100 uM
[14] = biological target: Amyloid-beta precursor protein (Homo sapiens) (UniProt P05067); test: Inhibition of aggregation of human DHFR-fused amyloid beta (1 to 42) expressed in yeast harboring erg6delta assessed as increase in yeast viability measured up to 20 hrs in presence of MTX
[15] = Inhibition of aggregation of GFP-fused amyloid beta (1 to 42) expressed in Podospora anserina assessed as reduction of amyloid beta SDS-resistant oligomers at 100 uM after 24 hrs by SDS-PAGE and Western blot analysis

inhibition [2] | inhibition [3] | inhibition [4] | Activity [6] | inhibition [8] | logP [10] | inhibition [11] | inhibition [15] | SMILES | MCC at 24 h [1] | Activity (Saccharomyces cerevisiae [5]) | Activity [7] | Activity (Saccharomyces cerevisiae [9]) | inhibition [12] | Activity [13] | inhibition [14]
Active | Active | Active | inactive | inactive | 3.3 |  |  | Nc1c(S(=O)(=O)c2ccc(Cl)cc2)cnc2cc(-c3ccccc3)nn12 | 22 µM |  | Non-toxic | Toxic |  |  | 
Active | Active | Active | inactive | inactive | 3.7 | Active |  | O=C(Nc1ccccc1)Nc1ccc(Cl)cc1[N+](=O)[O-] | 20 µM |  | Toxic | Toxic | Active |  | 

The remaining lines, values behind:

SMILES | inhibition [2] | inhibition [3] | inhibition [4] | Activity [6] | inhibition [8] | logP [10] | inhibition [11] | inhibition [15] | MCC at 24 h [1] | Activity (Saccharomyces cerevisiae [5]) | Activity [7] | Activity (Saccharomyces cerevisiae [9]) | inhibition [12] | Activity [13] | inhibition [14]
CCCCC(CC)CNC(=N)NC(=N)NCCCCCCNC(=N)NC(=N)NCC(CC)CCCC.Cl.Cl (configuration not stated) [ALEXIDINE DIHYDROCHLORIDE] | Active | Active | Active |  |  |  |  |  | 2 µM | Toxic |  |  |  |  | 
Cc1nc2sc3c(c2c(=O)o1)CCCC3 | Active | Active | Active | inactive |  | 2.8 | Active | inactive | 184 µM |  |  |  | Active | Toxic | Dose-dependent effect
O=S(=O)(Nc1ccc(N2CCCCC2)cc1)c1cc(Cl)sc1Cl | Active | Active | Active | inactive | Active | 3.9 | Active |  | 17 µM |  | Non-toxic |  | Active |  | Dose-dependent effect

Source: ChEMBL document CHEMBL2176928, “Discovery of novel inhibitors of amyloid β-peptide 1-42 aggregation” (J Med Chem, 2012)
